In ChEMBL document CHEMBL3779891 (Eur J Med Chem, 2016):
One block for each compound: values may come before it. The source made the active and inactive calls. The calls are words filed in the database; no cut-off is given here.

Legend:
HepG2 [1] = assay: Antioxidant activity in human HepG2 cells assessed as decrease in fluorescence level after 2.5 hrs measured every 5 mins for 1 hr by DCFH-DA staining based fluorescence assay; format: functional, cell-based
HepG2 [2] = assay: Antioxidant activity in human HepG2 cells assessed as decrease in fluorescence level by measuring ratio of micromol of quercetin to 100 umol of compound after 2.5 hrs measured every 5 mins for 1 hr by DCFH-DA staining based fluorescence assay; format: functional; design: scale not given: the % may be the effect or the level left
Erythrocyte [3] = assay: Cytoprotective activity in human erythrocytes assessed as inhibition of AAPH-induced oxidative hemolysis at 100 ug/ml preincubated for 30 mins followed by AAPH induction measured after 2 hrs by spectrophotometric analysis relative to control; format: functional
Erythrocyte [4] = assay: Cytoprotective activity in human erythrocytes assessed as inhibition of AAPH-induced oxidative hemolysis preincubated for 30 mins followed by AAPH induction measured after 2 hrs by spectrophotometric analysis; format: functional, cell-based
Erythrocyte [5] = assay: Inhibition of lipid peroxidation in human erythrocytes assessed as reduction in AAPH-induced malondialdehyde formation at 100 ug/ml preincubated for 20 mins followed by AAPH addition measured after 2 hrs by […] relative to untreated control; format: functional
Erythrocyte [6] = assay: Inhibition of AAPH-induced oxidative hemolysis in human erythrocytes assessed as smooth and round surface at 100 ug/ml preincubated for 20 mins followed by AAPH addition measured after 2 hrs by scanning electron microscopic analysis; format: functional, cell-based
Catalase (Homo sapiens) = biological target: T1, Catalase (Homo sapiens) (UniProt P04040); assay: Reduction of catalase activity in human erythrocytes at 100 ug/ml preincubated followed by AAPH addition measured after 2 hrs; format: cell-based; design: scale not given: the % may be the effect or the level left
T1 sequence (whole entry): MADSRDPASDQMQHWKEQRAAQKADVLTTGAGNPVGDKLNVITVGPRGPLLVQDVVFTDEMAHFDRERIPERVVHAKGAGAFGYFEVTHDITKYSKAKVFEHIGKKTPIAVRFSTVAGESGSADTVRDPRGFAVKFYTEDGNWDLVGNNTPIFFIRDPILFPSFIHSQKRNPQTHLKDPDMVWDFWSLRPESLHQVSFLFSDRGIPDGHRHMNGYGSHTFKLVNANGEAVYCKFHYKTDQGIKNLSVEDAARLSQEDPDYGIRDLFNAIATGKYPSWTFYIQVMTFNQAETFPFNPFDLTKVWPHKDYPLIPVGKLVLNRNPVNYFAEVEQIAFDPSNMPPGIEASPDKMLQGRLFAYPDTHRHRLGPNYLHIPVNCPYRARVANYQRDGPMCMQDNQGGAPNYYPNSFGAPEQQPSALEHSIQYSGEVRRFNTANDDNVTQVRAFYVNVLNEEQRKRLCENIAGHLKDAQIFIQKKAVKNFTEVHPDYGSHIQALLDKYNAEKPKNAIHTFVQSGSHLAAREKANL

[7] = biological target: Superoxide dismutase [Cu-Zn] (Homo sapiens) (UniProt P00441); assay: Induction of superoxide dismutase activity in human erythrocytes at 100 ug/ml preincubated followed by AAPH addition measured after 2 hrs; format: cell-based
Homo sapiens = species on record: Homo sapiens; assay: Induction of glutathione peroxidase activity in human erythrocytes at 100 ug/ml preincubated followed by AAPH addition measured after 2 hrs; format: cell-based
HepG2 [8] = assay: Antioxidant activity in human HepG2 cells assessed as decrease in AAPH-induced ROS level at 100 ug/ml preincubated for 2 hrs followed by AAPH addition by DCFH-DA staining based microplate fluorometric analysis relative to control; format: functional; design: scale not given: the % may be the effect or the level left
A549 [9] = assay: Antiproliferative activity against human A549 cells assessed as reduction in cell survival after 48 hrs by MTT assay; format: functional, cell-based
HeLa [10] = assay: Antiproliferative activity against human HeLa cells assessed as reduction in cell survival after 48 hrs by MTT assay; format: functional, cell-based
SGC-7901 = assay: Antiproliferative activity against human SGC7901 cells assessed as reduction in cell survival after 48 hrs by MTT assay; format: functional, cell-based
MCF7 [11] = assay: Antiproliferative activity against human MCF7 cells assessed as reduction in cell survival after 48 hrs by MTT assay; format: functional, cell-based
A549 [12] = assay: Antiproliferative activity against human A549 cells assessed as cell survival at 100 ug/ml after 48 hrs by MTT assay relative to control; format: functional; details: A549, 48 h, read-out: Survival
HeLa [13] = assay: Antiproliferative activity against human HeLa cells assessed as cell survival at 100 ug/ml after 48 hrs by MTT assay relative to control; format: functional; details: read-out: Survival
[14] = Antiproliferative activity against human SGC7901 cells assessed as cell survival at 100 ug/ml after 48 hrs by MTT assay relative to control; format: functional; details: SGC-7901, 48 h, read-out: Survival
MCF7 [15] = assay: Antiproliferative activity against human MCF7 cells assessed as cell survival at 100 ug/ml after 48 hrs by MTT assay relative to control; format: functional; details: MCF7, 48 h, read-out: Survival
MCF7 [16] = assay: Induction of apoptosis in human MCF7 cells assessed as nuclear morphological deformity at 500 ug/ml after 12 hrs by scanning electron microscopic analysis; format: functional, cell-based
MCF7 [17] = assay: Induction of apoptosis in human MCF7 cells assessed as chromatin condensation at 500 ug/ml after 12 hrs by scanning electron microscopic analysis; format: functional, cell-based
MCF7 [18] = assay: Induction of apoptosis in human MCF7 cells assessed as cell shrinkage at 500 ug/ml after 24 hrs by scanning electron microscopic analysis; format: functional, cell-based
MCF7 [19] = assay: Induction of apoptosis in human MCF7 cells assessed as cytoplasm overflow at 500 ug/ml after 24 hrs by scanning electron microscopic analysis; format: functional, cell-based
MCF7 [20] = assay: Induction of apoptosis in human MCF7 cells assessed as morphological deformity at 500 ug/ml after 48 hrs by scanning electron microscopic analysis; format: functional, cell-based
MCF7 [21] = assay: Induction of apoptosis in human MCF7 cells assessed as plasma membrane blebbing at 500 ug/ml after 48 hrs by scanning electron microscopic analysis; format: functional, cell-based
MCF7 [22] = assay: Induction of apoptosis in human MCF7 cells assessed as apoptotic bodies at 500 ug/ml after 48 hrs by scanning electron microscopic analysis; format: functional, cell-based
MCF7 [23] = assay: Induction of apoptosis in human MCF7 cells assessed as morphological changes at 500 ug/ml by scanning electron microscopic analysis; format: functional, cell-based; details: TDE = time-dependent effect
MCF7 [24] = assay: Induction of apoptosis in human MCF7 cells assessed as chromatin hypercondensation at 25 to 100 ug/ml after 48 hrs by Hoechst 33258 staining based fluorescence microscopic analysis; format: functional, cell-based
MCF7 [25] = assay: Induction of apoptosis in human MCF7 cells assessed as mitochondrial membrane potential loss at 100 ug/ml after 48 hrs by JC-1 staining based fluorescence microscopic analysis; format: functional, cell-based

Sequence of Superoxide dismutase [Cu-Zn] (Homo sapiens) (P00441 whole entry): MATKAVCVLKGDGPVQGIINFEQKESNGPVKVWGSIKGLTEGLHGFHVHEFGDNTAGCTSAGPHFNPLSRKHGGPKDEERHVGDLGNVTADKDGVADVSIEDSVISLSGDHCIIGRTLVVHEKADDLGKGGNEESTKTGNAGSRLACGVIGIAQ

Structure (SMILES): O=c1c(O)c(-c2ccc(O)c(O)c2)oc2cc(O)cc(O)c12 [QUERCETIN]
EC50 (HepG2 [1]): 4.63 µmol

Structure (SMILES): O=c1c(O)c(-c2cc(O)c(O)c(O)c2)oc2cc(O)cc(O)c12 [MYRICETIN]
Activity (HepG2 [2]): 36.8%

Structure (SMILES): O=C(O[C@@H]1Cc2c(O)cc(O)cc2O[C@@H]1c1cc(O)c(O)c(O)c1)c1cc(O)c(O)c(O)c1 [EPIGALOCATECHIN GALLATE]
Activity (HepG2 [2]): 33.1%

EC50 (HepG2 [1]): 7.98 µmol
Structure (SMILES): COc1ccc(-c2cc(=O)c3c(O)cc(O)cc3o2)cc1O [DIOSMETIN]
Activity (HepG2 [2]): 58%

Structure (SMILES): O=c1c(O)c(-c2ccc(O)cc2)oc2cc(O)cc(O)c12 [KAEMPFEROL]
Activity (HepG2 [2]): 59.8%
Activity (HepG2 [1]): Dose-dependent effect
EC50 (HepG2 [1]): 7.74 µmol
inhibition at 100 µg/mL (Erythrocyte [3]): 87.4%
inhibition (Erythrocyte [4]): Dose-dependent effect
inhibition at 100 µg/mL (Erythrocyte [5]): 36.5%
inhibition (Erythrocyte [6]): Active
Activity (Catalase (Homo sapiens)): < 95.5%
Activity [7]: inactive
Activity (Homo sapiens): inactive
Activity (HepG2 [8]): 88.25%
Activity (A549 [9]): Dose-dependent effect
Activity (HeLa [10]): Dose-dependent effect
Activity (SGC-7901): Dose-dependent effect
Activity (MCF7 [11]): Dose-dependent effect
viability at 100 µg/mL (A549 [12]): 60.2%
viability at 100 µg/mL (HeLa [13]): 57.5%
viability at 100 µg/mL [14]: 59.2%
viability at 100 µg/mL (MCF7 [15]): 47.9%
Activity (MCF7 [16]): Active
Activity (MCF7 [17]): Active
Activity (MCF7 [18]): Active
Activity (MCF7 [19]): Active
Activity (MCF7 [20]): Active
Activity (MCF7 [21]): Active
Activity (MCF7 [22]): Active
Activity (MCF7 [23]): tde
Activity (MCF7 [24]): Active
Activity (MCF7 [25]): Active

Structure (SMILES): O=c1cc(-c2ccc(O)c(O)c2)oc2cc(O)cc(O)c12 [LUTEOLIN]
Activity (HepG2 [2]): 32.3%
